According to patent US11472798B2 (Mission Therapeutics Limited, priority 2014, dated 2022):

Target: T1, UCHL1 (Homo sapiens, UniProt P09936)
T1 construct: made in house; host or cells: HEK293T
T1 sequence (P09936 1-223): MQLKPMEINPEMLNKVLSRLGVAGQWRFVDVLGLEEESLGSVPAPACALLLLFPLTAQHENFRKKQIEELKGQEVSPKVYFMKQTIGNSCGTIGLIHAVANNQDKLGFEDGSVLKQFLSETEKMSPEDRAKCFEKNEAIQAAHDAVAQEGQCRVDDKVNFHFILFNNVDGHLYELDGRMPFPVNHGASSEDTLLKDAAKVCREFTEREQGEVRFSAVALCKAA
Experiment: UCHL1 biochemical IC50 assay (fluorescence polarisation)
Details: 30 min enzyme/compound pre-incubation at room temp, read after 2 hr incubation, read-out: Activity range (UCHL1 biochemical IC50 assay)
Method in brief: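 FLAG-UCHL1 purified from transfected HEK293T cells was preincubated 30 min at room temperature with compound (8 points, 100–0.03 μM final) in Tris pH 7.5 buffer with Tween 20, BSA and beta-mercaptoethanol. Reaction started with 50 nM TAMRA-peptide–ubiquitin isopeptide substrate; fluorescence polarisation (ex 540/em 590 nm) read at once and after 2 h.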

Compound | IC50 [nM]
N#CN1CC[C@H](C(=O)Nc2cn(CC3CCOCC3)cn2)C1 [Example 165, (S)-1-cyano-N-(1-((tetrahydro-2H-pyran-4-yl)methyl)-1H-imidazol-4-yl)pyrrolidine-3-carboxamide] | 1000 to 10000
Cc1noc(C)c1Cn1cnc(NC(=O)[C@H]2CCN(C#N)C2)c1 [Example 171, (S)-1-cyano-N-(1-((3,5-dimethylisoxazol-4-yl)methyl)-1H-imidazol-4-yl)pyrrolidine-3-carboxamide] | 1000 to 10000
C[C@H]1[C@@H](C(=O)Nc2cn([C@@H](C)c3ccccc3)cn2)CCN1C#N [Example 172, (2S,3S)-1-cyano-2-methyl-N-(1-((S)-1-phenylethyl)-1H-imidazol-4-yl)pyrrolidine-3-carboxamide] | 1000 to 10000
Cc1cccc(-n2cnc(NC(=O)[C@H]3CCN(C#N)C3)c2)n1 [Example 175, (S)-1-cyano-N-(1-(6-methylpyridin-2-yl)-1H-imidazol-4-yl)pyrrolidine-3-carboxamide] | 1000 to 10000
Cc1nccc(-n2cnc(NC(=O)[C@H]3CCN(C#N)C3)c2)n1 [Example 176, (S)-1-cyano-N-(1-(2-methylpyrimidin-4-yl)-1H-imidazol-4-yl)pyrrolidine-3-carboxamide] | 1000 to 10000
CN1CCC(n2cnc(NC(=O)[C@H]3CCN(C#N)C3)c2)C1 (stereo partly drawn) [Example 188, (3S)-1-cyano-N-(1-(1-methylpyrrolidin-3-yl)-1H-imidazol-4-yl)pyrrolidine-3-carboxamide] | 1000 to 10000
N#CN1CC[C@H](C(=O)Nc2nc3c(s2)CN(C(=O)c2ccccc2)CC3)C1 [Example 191, (S)—N-(5-benzoyl-4,5,6,7-tetrahydrothiazolo[5,4-c]pyridin-2-yl)-1-cyanopyrrolidine-3-carboxamide] | < 1000
COc1ccccc1C(=O)N1CCc2nc(NC(=O)[C@H]3CCN(C#N)C3)sc2C1 [Example 192, (S)-1-cyano-N-(5-(2-methoxybenzoyl)-4,5,6,7-tetrahydrothiazolo[5,4-c]pyridin-2-yl)pyrrolidine-3-carboxamide] | < 1000
N#CN1CC[C@H](C(=O)Nc2nc3c(s2)CN(C(=O)c2ccccn2)CC3)C1 [Example 193, (S)-1-cyano-N-(5-picolinoyl-4,5,6,7-tetrahydrothiazolo[5,4-c]pyridin-2-yl)pyrrolidine-3-carboxamide] | < 1000
Cn1ccc(C(=O)N2CCc3nc(NC(=O)[C@H]4CCN(C#N)C4)sc3C2)n1 [Example 194, (S)-1-cyano-N-(5-(1-methyl-1H-pyrazole-3-carbonyl)-4,5,6,7-tetrahydrothiazolo[5,4-c]pyridin-2-yl)pyrrolidine-3-carboxamide] | < 1000
Cn1cccc(C(=O)N2CCc3nc(NC(=O)[C@H]4CCN(C#N)C4)sc3C2)c1=O [Example 195, (S)-1-cyano-N-(5-(1-methyl-2-oxo-1,2-dihydropyridine-3-carbonyl)-4,5,6,7-tetrahydrothiazolo[5,4-c]pyridin-2-yl)pyrrolidine-3-carboxamide] | < 1000
N#CN1CC[C@H](C(=O)Nc2nc3c(s2)CN(C(=O)c2cccnc2)CC3)C1 [Example 196, (S)-1-cyano-N-(5-nicotinoyl-4,5,6,7-tetrahydrothiazolo[5,4-c]pyridin-2-yl)pyrrolidine-3-carboxamide] | < 1000
CN(C)CC(=O)N1CCc2nc(NC(=O)[C@H]3CCN(C#N)C3)sc2C1 [Example 197, (S)-1-cyano-N-(5-(dimethylglycyl)-4,5,6,7-tetrahydrothiazolo[5,4-c]pyridin-2-yl)pyrrolidine-3-carboxamide] | 1000 to 10000
COC(=O)N1CCc2nc(NC(=O)[C@H]3CCN(C#N)C3)sc2C1 [Example 198, methyl (S)-2-(1-cyanopyrrolidine-3-carboxamido)-6,7-dihydrothiazolo[5,4-c]pyridine-5(4H)-carboxylate] | < 1000
COCCOC(=O)N1CCc2nc(NC(=O)[C@H]3CCN(C#N)C3)sc2C1 [Example 199, 2-methoxyethyl (S)-2-(1-cyanopyrrolidine-3-carboxamido)-6,7-dihydrothiazolo[5,4-c]pyridine-5(4H)-carboxylate] | 1000 to 10000

The next lines start with the values.

IC50 [nM] | Compound
< 1000 | N#CN1CC[C@H](C(=O)Nc2cn(C3CCCCC3)cn2)C1 [Example 162, (S)-1-cyano-N-(1-cyclohexyl-1H-imidazol-4-yl)pyrrolidine-3-carboxamide]
< 1000 | N#CN1CC[C@H](C(=O)Nc2cn(C3CCc4ccccc43)cn2)C1 (some centres unmarked) [Example 163]
< 1000 | N#CN1CC[C@H](C(=O)Nc2cn(C3Cc4ccccc4C3)cn2)C1 [Example 164, (S)-1-cyano-N-(1-(2,3-dihydro-1H-inden-2-yl)-1H-imidazol-4-yl)pyrrolidine-3-carboxamide]
< 1000 | C[C@@H](c1ccccc1)n1cnc(NC(=O)[C@H]2CCN(C#N)C2)c1 [Example 166, (S)-1-cyano-N-(1-((S)-1-phenylethyl)-1H-imidazol-4-yl)pyrrolidine-3-carboxamide]
< 1000 | C[C@H](c1ccccc1)n1cnc(NC(=O)[C@H]2CCN(C#N)C2)c1 [Example 167, (S)-1-cyano-N-(1-((R)-1-phenylethyl)-1H-imidazol-4-yl)pyrrolidine-3-carboxamide]
< 1000 | N#CN1CC[C@H](C(=O)Nc2cn(Cc3ccccn3)cn2)C1 [Example 168, (S)-1-cyano-N-(1-(pyridin-2-ylmethyl)-1H-imidazol-4-yl)pyrrolidine-3-carboxamide]
< 1000 | N#CN1CC[C@H](C(=O)Nc2cn(Cc3cccnc3)cn2)C1 [Example 169, (S)-1-cyano-N-(1-(pyridin-3-ylmethyl)-1H-imidazol-4-yl)pyrrolidine-3-carboxamide]
< 1000 | N#CN1CC[C@H](C(=O)Nc2cn(Cc3ccncc3)cn2)C1 [Example 170, (S)-1-cyano-N-(1-(pyridin-4-ylmethyl)-1H-imidazol-4-yl)pyrrolidine-3-carboxamide]
< 1000 | C[C@@H]1CN(C#N)C[C@H]1C(=O)Nc1cn([C@@H](C)c2ccccc2)cn1 [Example 173, (3S,4S)-1-cyano-4-methyl-N-(1-((S)-1-phenylethyl)-1H-imidazol-4-yl)pyrrolidine-3-carboxamide]
< 1000 | Cc1ccnc(-n2cnc(NC(=O)[C@H]3CCN(C#N)C3)c2)c1 [Example 174, (S)-1-cyano-N-(1-(4-methylpyridin-2-yl)-1H-imidazol-4-yl)pyrrolidine-3-carboxamide]
< 1000 | N#Cc1ccc(-n2cnc(NC(=O)[C@H]3CCN(C#N)C3)c2)cc1 [Example 177, (S)-1-cyano-N-(1-(4-cyanophenyl)-1H-imidazol-4-yl)pyrrolidine-3-carboxamide]
< 1000 | Cc1nc(NC(=O)[C@H]2CCN(C#N)C2)cn1Cc1ccccc1 [Example 178, (S)—N-(1-benzyl-2-methyl-1H-imidazol-4-yl)-1-cyanopyrrolidine-3-carboxamide]
< 1000 | Cc1noc(C)c1CCn1cnc(NC(=O)[C@H]2CCN(C#N)C2)c1 [Example 179, (S)-1-cyano-N-(1-(2-(3,5-dimethylisoxazol-4-yl)ethyl)-1H-imidazol-4-yl)pyrrolidine-3-carboxamide]
< 1000 | N#Cc1cccc(-n2cnc(NC(=O)[C@H]3CCN(C#N)C3)c2)c1 [Example 180, (S)-1-cyano-N-(1-(3-cyanophenyl)-1H-imidazol-4-yl)pyrrolidine-3-carboxamide]
< 1000 | N#CN1CC[C@H](C(=O)Nc2cn(-c3cccnc3)cn2)C1 [Example 181, (S)-1-cyano-N-(1-(pyridin-3-yl)-1H-imidazol-4-yl)pyrrolidine-3-carboxamide]
< 1000 | N#CN1CC[C@H](C(=O)Nc2cn(-c3ccncc3)cn2)C1 [Example 182, (S)-1-cyano-N-(1-(pyridin-4-yl)-1H-imidazol-4-yl)pyrrolidine-3-carboxamide]
< 1000 | COc1cccc(-n2cnc(NC(=O)[C@H]3CCN(C#N)C3)c2)c1 [Example 183, (S)-1-cyano-N-(1-(3-methoxyphenyl)-1H-imidazol-4-yl)pyrrolidine-3-carboxamide]
< 1000 | N#CN1CC[C@H](C(=O)Nc2cn(C3CCCN(C(=O)c4ccccc4)C3)cn2)C1 (stereo partly drawn) [Example 184, (3S)—N-(1-(1-benzoylpiperidin-3-yl)-1H-imidazol-4-yl)-1-cyanopyrrolidine-3-carboxamide]
< 1000 | N#CN1CC[C@H](C(=O)Nc2cn(C3CCN(C(=O)c4ccccc4)C3)cn2)C1 (stereo partly drawn) [Example 185, (3S)—N-(1-(1-benzoylpyrrolidin-3-yl)-1H-imidazol-4-yl)-1-cyanopyrrolidine-3-carboxamide]
< 1000 | N#CN1CC[C@H](C(=O)Nc2cn(C3CCCN(Cc4ccccc4)C3)cn2)C1 (stereo partly drawn) [Example 186, (3S)—N-(1-(1-benzylpiperidin-3-yl)-1H-imidazol-4-yl)-1-cyanopyrrolidine-3-carboxamide]
< 1000 | CN1CCCC(n2cnc(NC(=O)[C@H]3CCN(C#N)C3)c2)C1 (stereo partly drawn) [Example 187, (3S)-1-cyano-N-(1-(1-methylpiperidin-3-yl)-1H-imidazol-4-yl)pyrrolidine-3-carboxamide]
< 1000 | CC(=O)N1CCc2nc(NC(=O)[C@H]3CCN(C#N)C3)sc2C1 [Example 189, (S)—N-(5-acetyl-4,5,6,7-tetrahydrothiazolo[5,4-c]pyridin-2-yl)-1-cyanopyrrolidine-3-carboxamide]
< 1000 | CC(C)C(=O)N1CCc2nc(NC(=O)[C@H]3CCN(C#N)C3)sc2C1 [Example 190, (S)-1-cyano-N-(5-isobutyryl-4,5,6,7-tetrahydrothiazolo[5,4-c]pyridin-2-yl)pyrrolidine-3-carboxamide]
